Several values for one entry are separate records, joined by “and”; a condition that tells them apart may be missing. Identical values can stand only once. Inconclusive results and toxic doses are left out. Rule for the calls: active = survival T/C of 150% or more; inactive = T/C below 125% in these data.
Tested on: P388 leukemia ip, CD2F1 mice, survival T/C
Assay: NCI In Vivo Anticancer Drug Screen. Data for tumor model P388 Leukemia (intraperitoneal) in CD2F1 (CDF1) mice
Settings: endpoint: median survival time, higher = longer survival
Method in brief: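 Mice carrying the transplanted tumor received test compound or vehicle. Survival was recorded in each group, and the value is the treated-group measurement divided by that of the vehicle-treated control group.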

[1] = dose: 50.0 mg/kg/injection, schedule: Q01DX009 (ip), vehicle: Klucel (hydroxypropylcellulose) (HPC)
[2] = dose: 100.0 mg/kg/injection, schedule: Q01DX009 (ip), vehicle: Klucel (hydroxypropylcellulose) (HPC)
[3] = dose: 200.0 mg/kg/injection, schedule: Q01DX009 (ip), vehicle: Klucel (hydroxypropylcellulose) (HPC)
[4] = dose: 50.0 mg/kg/injection, schedule: Q01DX001 (ip), vehicle: saline with Tween-80
[5] = dose: 60.0 mg/kg/injection, schedule: Q01DX005 (ip), vehicle: saline with Tween-80
[6] = dose: 120.0 mg/kg/injection, schedule: Q01DX005 (ip), vehicle: saline with Tween-80
[7] = dose: 240.0 mg/kg/injection, schedule: Q01DX005 (ip), vehicle: saline with Tween-80
[8] = dose: 50.0 mg/kg/injection, schedule: Q01DX009 (ip), vehicle: saline with Tween-80
[9] = dose: 100.0 mg/kg/injection, schedule: Q01DX009 (ip), vehicle: saline with Tween-80

Measured: T/C

CC1=CC(O)C(O)C2(C)C1CC(=O)C13COC4OC(CC1C4=O)C(O)C32 (stereo not drawn)
inactive: dose: 0.5 mg/kg/injection, schedule: Q01DX009 (ip), vehicle: saline 102 % of control | dose: 1.0 mg/kg/injection, schedule: Q01DX009 (ip), vehicle: saline 103 % of control | dose: 2.0 mg/kg/injection, schedule: Q01DX009 (ip), vehicle: Klucel (hydroxypropylcellulose) (HPC) 96 % of control and 97 % of control | dose: 2.0 mg/kg/injection, schedule: Q01DX009 (ip), vehicle: saline 107 % of control | dose: 4.0 mg/kg/injection, schedule: Q01DX009 (ip), vehicle: Klucel (hydroxypropylcellulose) (HPC) 100 % of control and 111 % of control and 92 % of control | dose: 4.0 mg/kg/injection, schedule: Q01DX009 (ip), vehicle: saline 102 % of control | dose: 8.0 mg/kg/injection, schedule: Q01DX009 (ip), vehicle: Klucel (hydroxypropylcellulose) (HPC) 98 % of control and 94 % of control | dose: 16.0 mg/kg/injection, schedule: Q01DX009 (ip), vehicle: Klucel (hydroxypropylcellulose) (HPC) 92 % of control | dose: 32.0 mg/kg/injection, schedule: Q01DX009 (ip), vehicle: Klucel (hydroxypropylcellulose) (HPC) 86 % of control

O=C1CCCCC1N1C(=O)c2ccccc2C1=O (stereo not drawn)
inactive: dose: 100.0 mg/kg/injection, schedule: Q04DX002 (ip), vehicle: Klucel (hydroxypropylcellulose) (HPC) 101 % of control | dose: 200.0 mg/kg/injection, schedule: Q04DX002 (ip), vehicle: Klucel (hydroxypropylcellulose) (HPC) 97 % of control | dose: 400.0 mg/kg/injection, schedule: Q04DX002 (ip), vehicle: Klucel (hydroxypropylcellulose) (HPC) 97 % of control

CCOP(=O)(N=Nc1cccnc1)OCC
inactive: dose: 1.56 mg/kg/injection, schedule: Q01DX009 (ip), vehicle: water 107 % of control | dose: 3.12 mg/kg/injection, schedule: Q01DX009 (ip), vehicle: water 101 % of control | dose: 6.25 mg/kg/injection, schedule: Q01DX005 (ip), vehicle: water 100 % of control | dose: 6.25 mg/kg/injection, schedule: Q01DX009 (ip), vehicle: water 101 % of control | dose: 12.5 mg/kg/injection, schedule: Q01DX005 (ip), vehicle: water 96 % of control | dose: 12.5 mg/kg/injection, schedule: Q01DX009 (ip), vehicle: water 112 % of control | dose: 25.0 mg/kg/injection, schedule: Q01DX005 (ip), vehicle: water 102 % of control | dose: 25.0 mg/kg/injection, schedule: Q01DX009 (ip), vehicle: water 117 % of control | dose: 50.0 mg/kg/injection, schedule: Q01DX005 (ip), vehicle: water 103 % of control | dose: 100.0 mg/kg/injection, schedule: Q01DX005 (ip), vehicle: water 103 % of control

COC(=O)c1cc(-c2ccccc2)[nH]c1-c1ccccc1
inactive: dose: 12.5 mg/kg/injection, schedule: Q01DX009 (ip), vehicle: saline 105 % of control | dose: 25.0 mg/kg/injection, schedule: Q01DX009 (ip), vehicle: saline 104 % of control | dose: 50.0 mg/kg/injection, schedule: Q01DX009 (ip), vehicle: saline 102 % of control

CC(=O)OC1=CC(=O)N(C(=O)c2ccccc2)C1
inactive: [1] 105 % of control | [2] 116 % of control | [3] 113 % of control

O=C1C2CCc3cnn(-c4ccccc4)c3C2C(=O)N1c1ccccc1 (stereo not drawn)
inactive: dose: 50.0 mg/kg/injection, schedule: Q01DX005 (ip), vehicle: saline with Tween-80 101 % of control | dose: 100.0 mg/kg/injection, schedule: Q01DX005 (ip), vehicle: saline with Tween-80 99 % of control | dose: 200.0 mg/kg/injection, schedule: Q01DX005 (ip), vehicle: saline with Tween-80 94 % of control

CCN1CCc2cccc3c2C1c1ccccc1CC3 (stereo not drawn)
inactive: [4] 100 % of control | dose: 100.0 mg/kg/injection, schedule: Q01DX001 (ip), vehicle: saline with Tween-80 101 % of control

Cc1cc(O)c2c(c1)C(=O)C(c1c(C)cc3c(c1O)C(=O)C1OC1C3=O)=CC2=O (stereo not drawn)
inactive: dose: 0.78 mg/kg/injection, schedule: Q01DX005 (ip), vehicle: Klucel (hydroxypropylcellulose) (HPC) 91 % of control | dose: 1.56 mg/kg/injection, schedule: Q01DX005 (ip), vehicle: Klucel (hydroxypropylcellulose) (HPC) 106 % of control | dose: 3.12 mg/kg/injection, schedule: Q01DX005 (ip), vehicle: Klucel (hydroxypropylcellulose) (HPC) 113 % of control | dose: 6.25 mg/kg/injection, schedule: Q01DX005 (ip), vehicle: Klucel (hydroxypropylcellulose) (HPC) 100 % of control

CS(=O)(=O)N1CCCN(S(C)(=O)=O)COC1
inactive: [5] 99 % of control | [6] 101 % of control | [7] 101 % of control

CC(=O)OC[N+]1(C)CCCCC1
inactive: [8] 111 % of control | [9] 106 % of control | dose: 200.0 mg/kg/injection, schedule: Q01DX009 (ip), vehicle: saline with Tween-80 116 % of control

COC12C=C(C(C)(C)C)C(CC1)C1C(=O)c3c(OC(=O)OCc4ccc([N+](=O)[O-])cc4)ccc(O)c3C(=O)C12 (stereo not drawn)
inactive: dose: 30.0 mg/kg/injection, schedule: Q01DX005 (ip), vehicle: saline with Tween-80 91 % of control | [5] 86 % of control and 94 % of control | [6] 91 % of control and 92 % of control | [7] 100 % of control

CC1(c2ccc(Cl)cc2)OC(=O)C(=Cc2ccc([N+](=O)[O-])s2)C(=O)O1 (stereo not drawn)
inactive: [9] 122 % of control

Cc1ccc(S)c(C(O)(C(F)(F)F)C(F)(F)F)c1
inactive: dose: 50.0 mg/kg/injection, schedule: Q01DX009 (ip), vehicle: other 100 % of control | dose: 100.0 mg/kg/injection, schedule: Q01DX009 (ip), vehicle: other 100 % of control | dose: 200.0 mg/kg/injection, schedule: Q01DX009 (ip), vehicle: other 100 % of control

COC(=O)c1cc(=O)n(-c2ccccc2C(F)(F)F)c(SC)n1
inactive: dose: 50.0 mg/kg/injection, schedule: Q04DX003 (ip), vehicle: Klucel (hydroxypropylcellulose) (HPC) 95 % of control and 97 % of control | dose: 100.0 mg/kg/injection, schedule: Q04DX003 (ip), vehicle: Klucel (hydroxypropylcellulose) (HPC) 99 % of control and 100 % of control | dose: 200.0 mg/kg/injection, schedule: Q04DX003 (ip), vehicle: Klucel (hydroxypropylcellulose) (HPC) 104 % of control and 111 % of control | dose: 400.0 mg/kg/injection, schedule: Q04DX003 (ip), vehicle: Klucel (hydroxypropylcellulose) (HPC) 110 % of control

c1nc(SSc2ncnc3nc[nH]c23)c2[nH]cnc2n1
inactive: dose: 12.5 mg/kg/injection, schedule: Q01DX009 (ip), vehicle: saline with Tween-80 113 % of control | dose: 25.0 mg/kg/injection, schedule: Q01DX009 (ip), vehicle: saline with Tween-80 118 % of control | [8] 100 % of control

O=P1(CNc2ccccc2)CN(c2ccccc2)CN(c2ccccc2)C1
inactive: dose: 12.5 mg/kg/injection, schedule: Q01DX001 (ip), vehicle: saline with Tween-80 100 % of control | dose: 25.0 mg/kg/injection, schedule: Q01DX001 (ip), vehicle: saline with Tween-80 100 % of control | [4] 100 % of control

CC(=O)C1C(=O)C(=O)N(c2cc(C)ccc2O)C1=O (stereo not drawn)
inactive: [1] 106 % of control | [2] 107 % of control | [3] 104 % of control

C/C(=N/NC(=O)CCl)c1ccccc1
inactive: dose: 75.0 mg/kg/injection, schedule: Q01DX009 (ip), vehicle: saline with Tween-80 108 % of control

C=CCc1ccccc1/C=N/NS(=O)(=O)c1ccc(C)cc1
inactive: dose: 100.0 mg/kg/injection, schedule: Q04DX002 (ip), vehicle: saline with Tween-80 100 % of control | dose: 200.0 mg/kg/injection, schedule: Q04DX002 (ip), vehicle: saline with Tween-80 98 % of control | dose: 400.0 mg/kg/injection, schedule: Q04DX002 (ip), vehicle: saline with Tween-80 97 % of control
